Activity calls are given as the source filed them. The calls are words filed in the database; no cut-off is given here.

By Ki is commonly meant the equilibrium dissociation constant of an inhibitor or competing ligand from its target. A higher Ki goes with a looser hold on the target.

The target of one assay is T1, Glycogen phosphorylase, muscle form (Oryctolagus cuniculus, UniProt P00489).
T1 sequence (P00489 whole entry): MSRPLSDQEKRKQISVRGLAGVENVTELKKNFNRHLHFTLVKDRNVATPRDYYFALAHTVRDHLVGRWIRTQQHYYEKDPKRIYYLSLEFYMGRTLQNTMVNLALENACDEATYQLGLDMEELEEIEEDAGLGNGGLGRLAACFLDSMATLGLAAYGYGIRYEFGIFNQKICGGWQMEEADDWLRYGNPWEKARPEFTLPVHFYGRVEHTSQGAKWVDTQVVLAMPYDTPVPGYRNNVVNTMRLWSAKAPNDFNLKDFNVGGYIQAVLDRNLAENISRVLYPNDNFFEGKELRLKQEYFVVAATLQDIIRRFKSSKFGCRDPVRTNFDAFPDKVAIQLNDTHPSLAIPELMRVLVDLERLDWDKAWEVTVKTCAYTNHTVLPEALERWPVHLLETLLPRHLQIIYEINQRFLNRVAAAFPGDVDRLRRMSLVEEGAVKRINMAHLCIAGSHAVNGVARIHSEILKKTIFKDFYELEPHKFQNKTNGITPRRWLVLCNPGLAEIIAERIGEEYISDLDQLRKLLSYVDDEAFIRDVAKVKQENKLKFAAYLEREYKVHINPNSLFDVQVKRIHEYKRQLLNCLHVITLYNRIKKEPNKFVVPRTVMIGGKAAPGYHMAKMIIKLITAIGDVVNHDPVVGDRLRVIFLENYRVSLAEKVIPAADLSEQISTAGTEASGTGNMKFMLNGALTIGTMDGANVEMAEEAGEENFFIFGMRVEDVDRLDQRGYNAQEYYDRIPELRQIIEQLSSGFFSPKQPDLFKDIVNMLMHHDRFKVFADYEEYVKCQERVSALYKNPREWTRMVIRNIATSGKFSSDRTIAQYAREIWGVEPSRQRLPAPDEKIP
Description: Inhibition of rabbit skeletal muscle glycogen phosphorylase b by Lineweaver-Burk plot method
Consider `O=C(N[C@@H]1O[C@H](CO)[C@@H](O)[C@H](O)[C@H]1O)c1cc(-c2ccccc2)no1`, for which the Ki was 172 µM.

`O=C(N[C@@H]1O[C@H](CO)[C@@H](O)[C@H](O)[C@H]1O)c1nnc(-c2ccccc2)o1`: the Ki was 545 µM.

The compound `O=C(N[C@@H]1O[C@H](CO)[C@@H](O)[C@H](O)[C@H]1O)c1nc(-c2cccc3ccccc23)no1` registered a Ki of 145 µM.

On to `O=C(N[C@@H]1O[C@H](CO)[C@@H](O)[C@H](O)[C@H]1O)c1nc(-c2ccccc2)no1`, for which the affinity corresponds to a Ki of 104 µM. `O=C(N[C@@H]1O[C@H](CO)[C@@H](O)[C@H](O)[C@H]1O)c1nnc(-c2cccc3ccccc23)o1` displayed a Ki of 172 µM.

The compound `O=C(N[C@@H]1O[C@H](CO)[C@@H](O)[C@H](O)[C@H]1O)c1cn(-c2ccccc2)nn1` gave a Ki of 75 µM. For `O=C(N[C@@H]1O[C@H](CO)[C@@H](O)[C@H](O)[C@H]1O)c1noc(-c2ccccc2)n1`, the inhibitory constant (Ki) is 136 µM. For `O=C(N[C@@H]1O[C@H](CO)[C@@H](O)[C@H](O)[C@H]1O)c1nnc(-c2ccc3ccccc3c2)o1`, the Ki came to 30 µM. For `O=C(N[C@@H]1O[C@H](CO)[C@@H](O)[C@H](O)[C@H]1O)c1noc(-c2cccc3ccccc23)n1`, the Ki came out at 33 µM.

A further assay deals with T2, Glycogen phosphorylase, muscle form (Oryctolagus cuniculus) (UniProt P00489).
T2 sequence (whole entry): T1 sequence (P00489 whole entry)
Kind of assay: Inhibition of rabbit skeletal muscle glycogen phosphorylase bat 625 uM by Lineweaver-Burk plot method.
For `O=C(N[C@@H]1O[C@H](CO)[C@@H](O)[C@H](O)[C@H]1O)c1noc(-c2ccc3ccccc3c2)n1`, the inhibition entry is “inactive”. As to `O=C(N[C@@H]1O[C@H](CO)[C@@H](O)[C@H](O)[C@H]1O)c1nc(-c2ccc3ccccc3c2)no1`, the inhibition result is “inactive”. As for `O=C(N[C@@H]1O[C@H](CO)[C@@H](O)[C@H](O)[C@H]1O)c1cn(-c2ccc3ccccc3c2)nn1`, the inhibition result is “inactive”. For the compound `O=C(N[C@@H]1O[C@H](CO)[C@@H](O)[C@H](O)[C@H]1O)c1cc(-c2ccc3ccccc3c2)no1`, the inhibition result was “inactive”.
